Data on one molecule can be found in publication PMC8783508, “A novel D-amino acid peptide with therapeutic potential (ISAD1) inhibits aggregation of neurotoxic disease-relevant mutant Tau and prevents Tau toxicity in vitro” (Alzheimer's Research & Therapy, 2022).

The structures appear in SMILES notation. Non-standard residues stand in square brackets, D forms with d. Residues, ends and D or L forms follow the SMILES beside them.

Assay [1] relates to Tau^FLΔK, Tau^FL-A152T, Tau^FL-P301L. As to the kind of experiment: Pelleting assay and western blot, full-length Tau mutants. In kind it is biochemical, human. Particulars: 10 µM Tau mutant, 100 µM peptide, 24 hours, K9JA western blot. The method, then: After the ThS assay (end time point, 24 h), 70 μl of each sample (pooled together from 2 wells) was centrifuged in a Beckmann coulter (Optima Max Ultra Centrifuge, TLA 100.3 rotor) at 61,000 rpm for 60 min at 4 °C. After centrifugation, the supernatant was separated from the pellet. Then, the pellet was dissolved in BES buffer in an equal volume as the supernatant. For the following western blot, 12-μl samples were mixed with 3-μl SDS-sample buffer (5x), heated for 5 min at 95 °C, and loaded onto a 8–16% SDS tris-glycine-gel (BioRad, Feldkirchen, Germany). The proteins were transferred to a polyvinylidene fluoride (PVDF) membrane. After the transfer, the membrane was blocked in 5% non-fat dry milk. After washing the membrane three times for 10 min with TBST, the primary pan-Tau K9JA antibody (1:5000; Agilent, Waldbronn, Germany) was incubated for 1 h at RT with gentle agitation, followed by again 3-times washing with TBST. […] The quantification of intensities was performed using ImageJ.
S-Figure 4-6: ISAD1 induces the formation of non-fibrillar large aggregates of Tau mutants. […] (C) The intensity of protein amount in supernatant and pellet was quantified by ImageJ for different Tau mutants such as Tau^FLΔK (Sup. Fig. 2C), Tau^FL-^A152T (Sup. Fig. 3C) or Tau^FL^-P^301L (Sup. Fig. 4C).
A general note: Immunoblotting shows a protein as a band on a membrane.

Assay [2] relates to N2a-Tau^RDΔK cells. Briefly: MTT, toxicity of externally added Tau^RDΔK aggregates. In kind it is cell-based. To be noted: Tau^RDΔK pre-incubated with peptide 1:10, 24 h, 37 °C; 10 μM Tau, 100 μM peptide final, 24 h on cells, n = 3. The method, then:
Cell viability was analyzed in accordance with the manufacturer’s protocol (Roche Diagnostics, Mannheim, Germany; cell proliferation kit II (MTT)). This assay is based on the cleavage of the yellow tetrazolium salt MTT into purple formazan dye by metabolic active cells. The color changes only in viable cells and can be directly quantified using a scanning multiwell spectrophotometer. In all experiments, the cells were grown as described previously. The cells (25,000 cells/well or 80% confluence) were plated on poly D-lysine-coated 96-well plates (Greiner Bio-One GmbH, Frickenhausen, Germany) for stronger attachment from overnight to 24 h at 37 °C. Fibrillized Tau^RDΔK was generated by incubating 200 μM Tau^RDΔK in BES buffer at 37 °C for 24 h in the presence of 2 mM D-peptides (Tau^RDΔK:peptide = 1:10). Successful fibrillization was verified using ThS (5 μM Tau^RDΔK, 10 μM ThS) measurement. The aggregated Tau^RDΔK (10 μM final concentration), Tau^RDΔK (10 μM) + peptide (100 μM) samples (ISAD1 and ISAD1rev), buffer only (negative control, set to 100% cell viability), and TritonX-100 (2%, cytotoxic agent, positive control) were incubated on N2a-Tau^RDΔK cells (100 μl solution) for another 24 h. The cell viability was measured in accordance with the manufacturer’s protocol.

Assay [3] concerns N2a-Tau^RDΔK cells. Briefly: LDH release, externally added Tau^RDΔK aggregates. In kind it is cell-based. To be noted: 10 μM Tau, 100 μM peptide final, pre-incubated, 24 h on cells, n = 3. The method, then: N2a cells expressing Tau^RDΔK were plated on poly D-lysine-coated 96-well plates with a density of 25,000 cells/well. At 70 to 80% confluence, the cells were treated for 24 h with various concentrations of D-peptides (25, 50, 100, and 250 μM) or Tau^RDΔK (10 μM final concentration) in the presence of ISAD1 and ISAD1rev (100 μM final concentration). The ability of D-peptides to neutralize the toxicity of Tau^RDΔK oligomers/fibrils was investigated by measuring the amount of released LDH (Roche Diagnostics, Mannheim, Germany). Therefore, 50 μL of each well was transferred to a fresh 96-well plate and 50 μL of reagent was added followed by a 30-min incubation period at RT. Finally, 50 μL of stop solution (1 N HCl) was added and absorbance was recorded at 492 nm (TECAN spectrofluorometer, Männedorf, Switzerland). Absorbance values were corrected by background values and the percentage of LDH release was calculated.
Background: LDH leaks from cells whose membrane has failed.

Assay [4] relates to N2a-Tau^RDΔK cells. Briefly: LDH release, intracellularly expressed Tau^RDΔK (Dox induced). In kind it is cell-based. To be noted: 1 μg/ml doxycycline, peptide 25, 50, 100, 250 μM, n = 2. The procedure: After the N2a-Tau^RDΔK cells reached the desired confluence (25,000 cells/well or 80%), intracellular Tau^RDΔK expression was induced by the addition of 1 μg/ml Dox. The cells were plated on poly D-lysine-coated 96-well plates (Greiner Bio-One GmbH, Frickenhausen, Germany) and treated with ISAD1 and ISAD1rev in a concentration range of 25 to 250 μM. TritonX-100 (2%) was used as a positive control. The incubation and Tau^RDΔK expression time was 72 h. Following incubation, cell viability was studied by measuring MTT and LDH release in accordance with the manufacturer’s protocol.

For `CC(C)C[C@@H](NC(=O)[C@@H](CO)NC(=O)[C@@H](CC(C)C)NC(=O)[C@H](NC(=O)[C@@H](CC(=O)O)NC(=O)[C@@H](C)NC(=O)[C@@H](C)NC(=O)[C@H](N)CO)[C@H](C)O)C(=O)N[C@H](CCCCN)C(=O)N[C@H](Cc1ccccc1)C(=O)N[C@@H](C(=O)N[C@H](CO)C(=O)O)C(C)C` [ISAD1rev] (H-[dS][dA][dA][dD][dT][dL][dS][dL][dK][dF][dV][dS]-OH; N-terminus and C-terminus assumed), the “Distribution of full-length Tau mutants between pellet and supernatant” value in assay [1] is on record as “more fractions in the supernatant”. For the same molecule, the “Effect on toxicity of Tau aggregates, cell viability (MTT)” value in the assay with N2a-Tau^RDΔK cells [2] is reported as “preserving cell viability”. In addition, in the assay with N2a-Tau^RDΔK cells [3], the “Effect on toxicity of Tau aggregates, LDH release” value is given as “Low LDH release levels”. Besides, in the assay with N2a-Tau^RDΔK cells [4], the “Effect on LDH release of cells expressing Tau^RDΔK” value is “Protection of cell membrane integrity”.
